Data from ChEMBL document CHEMBL4765279, “Discovery of a novel series of imidazo[1',2':1,6]pyrido[2,3-d]pyrimidin derivatives as potent cyclin-dependent kinase 4/6 inhibitors” (Eur J Med Chem, 2020).

Legend:
CDK4/Cyclin D3 = CDK4/Cyclin D3 (Homo sapiens, UniProt P11802); assay: Inhibition of recombinant human full-length N-terminal GST-fused CDK4 (1 to 303 residues)/GST-tagged CyclinD3 (1 to 292 residues) expressed in baculovirus expression system using ULight-elF4E-binding protein 1 peptide as substrate measured after 30 mins by LANCE assay
Sequence of CDK4/Cyclin D3 (P11802 whole entry, the tested form may be a part): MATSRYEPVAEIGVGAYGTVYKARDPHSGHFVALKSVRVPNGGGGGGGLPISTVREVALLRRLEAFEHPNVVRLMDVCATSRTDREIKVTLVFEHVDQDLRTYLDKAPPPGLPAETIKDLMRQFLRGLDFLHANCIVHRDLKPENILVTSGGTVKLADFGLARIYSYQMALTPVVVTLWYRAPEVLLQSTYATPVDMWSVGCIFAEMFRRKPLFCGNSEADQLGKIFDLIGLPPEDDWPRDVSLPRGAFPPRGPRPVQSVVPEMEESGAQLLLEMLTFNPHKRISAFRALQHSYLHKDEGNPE
Sequence of CDK4/Cyclin D3 (P30281 whole entry, further chain, the tested form may be a part): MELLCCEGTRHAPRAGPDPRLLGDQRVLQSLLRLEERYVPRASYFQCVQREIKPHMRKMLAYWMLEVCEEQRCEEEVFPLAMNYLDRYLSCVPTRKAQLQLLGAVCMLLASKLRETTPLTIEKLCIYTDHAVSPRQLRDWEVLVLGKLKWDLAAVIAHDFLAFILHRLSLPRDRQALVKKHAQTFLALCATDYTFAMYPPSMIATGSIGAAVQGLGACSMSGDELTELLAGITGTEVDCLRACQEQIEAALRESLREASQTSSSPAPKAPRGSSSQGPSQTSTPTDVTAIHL

CDK6/Cyclin D3 = CDK6/Cyclin D3 (Homo sapiens, UniProt Q00534); assay: Inhibition of human full-length N-terminal GST tagged CDK6 (1 to 326 residues)/GST-tagged cyclinD3 (1 to 292 residues) expressed in baculovirus expression system using ULight-elF4E-binding protein 1 peptide as substrate measured after 30 mins by LANCE assay
Sequence of CDK6/Cyclin D3 (Q00534 whole entry, looked up, the tested form may be a part): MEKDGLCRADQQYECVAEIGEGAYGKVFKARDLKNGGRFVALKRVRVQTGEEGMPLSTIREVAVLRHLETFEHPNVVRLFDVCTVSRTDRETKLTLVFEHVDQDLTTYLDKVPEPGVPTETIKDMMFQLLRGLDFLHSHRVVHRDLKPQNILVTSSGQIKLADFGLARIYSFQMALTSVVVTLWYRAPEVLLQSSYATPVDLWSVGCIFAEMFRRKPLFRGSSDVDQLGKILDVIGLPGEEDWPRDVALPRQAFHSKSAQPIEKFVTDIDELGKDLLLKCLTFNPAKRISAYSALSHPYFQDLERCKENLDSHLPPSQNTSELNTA

COLO 205 [1] = assay: Antiproliferative activity against human COLO 205 cells assessed as cell growth inhibition measured after 4 to 6 days by celltiter-glo luminescent cell viability assay; format: functional, cell-based
U-87 MG = assay: Antiproliferative activity against human U-87 MG cells assessed as cell growth inhibition measured after 4 to 6 days by celltiter-glo luminescent cell viability assay; format: functional, cell-based, U-87MG ATCC
COLO 205 [2] = assay: Cell cycle arrest in human COLO 205 cells assessed as accumulation at G0/G1 phase at 200 nM measured after 24 hrs by propidium iodide staining based flow cytometry relative to control; format: functional
MDA-MB-468 = assay: Antiproliferative activity against human MDA-MB-468 cells assessed as cell growth inhibition measured after 4 to 6 days by celltiter-glo luminescent cell viability assay; format: functional, cell-based

SMILES | IC50 (CDK4/Cyclin D3) | IC50 (CDK6/Cyclin D3) | IC50 (COLO 205 [1]) | IC50 (U-87 MG) | IC50 (MDA-MB-468) | Activity (COLO 205 [2])
Cc1cn2c(n1)c(C#N)c(C)c1cnc(Nc3ccc(Cl)cc3)nc12 | 271 nM | 280 nM | – | – | – | –
CC(=O)c1c(C)c2cnc(Nc3ccc(N4CCNCC4)cn3)nc2n(C2CCCC2)c1=O [PALBOCICLIB] | – | – | 301 nM | 345 nM | 5420 nM | 95.7%
CC(=O)c1c(C)c2cnc(Nc3ccc(N4CCNCC4)cc3)nc2n2cc(-c3ccccc3)nc12 | 13.5 nM | 32.8 nM | 474 nM | 412 nM | – | –
CC(=O)c1c(C)c2cnc(Nc3ccc(N4CCNCC4)cc3)nc2n2cc(C(=O)N3CCCC3)nc12 | 59 nM | 150 nM | – | > 10000 nM | – | –
CC(=O)c1c(C)c2cnc(Nc3ccc(N4CCNCC4)cc3)nc2n2cc(C3CCCCC3)nc12 | 18.9 nM | 22.2 nM | 121 nM | 122 nM | – | –
Cc1cn2c(n1)c(C#N)c(C)c1cnc(Nc3ccc(N4CCNCC4)cc3)nc12 | 26.5 nM | 33.6 nM | – | – | – | –
Cc1cn2c(n1)c(C#N)c(C)c1cnc(N)nc12 | 592 nM | 3090 nM | – | – | – | –
CC(=O)c1c(C)c2cnc(Nc3ccc(N4CCNCC4)cc3)nc2n2cc(C3CCCC3)nc12 | 4.7 nM | 5.9 nM | 73.4 nM | 64.8 nM | – | –

The remaining compounds from weak to strong by IC50 (CDK4/Cyclin D3), led by results:

IC50 (CDK4/Cyclin D3) | IC50 (CDK6/Cyclin D3) | IC50 (COLO 205 [1]) | IC50 (U-87 MG) | IC50 (MDA-MB-468) | SMILES | Activity (COLO 205 [2])
4.2 nM | 5.1 nM | 324 nM | 249 nM | – | CC(=O)c1c(C)c2cnc(Nc3ccc4c(n3)CCN(CCN(C)C)C4)nc2n2cc(C(C)C)nc12 | –
4 nM | 3.8 nM | 1280 nM | 719 nM | – | CC(=O)c1c(C)c2cnc(Nc3ccc(N4CCC5(CCNC5)C4)cn3)nc2n2cc(C(C)C)nc12 (stereo unspecified) | –
3.6 nM | 10.2 nM | 583 nM | 1260 nM | – | CC(=O)c1c(C)c2cnc(Nc3ccc(N4CCNCC4)cc3)nc2n2cc(C)nc12 | –
2.2 nM | 2.5 nM | 356 nM | 165 nM | – | CC(=O)c1c(C)c2cnc(Nc3ccc(CN4CCNCC4)cn3)nc2n2cc(C(C)C)nc12 | –
